{"source": "paper PMC6934184", "about": "“Selective DNA-PKcs inhibition extends the therapeutic index of localized radiotherapy and chemotherapy” (The Journal of Clinical Investigation, 2019)", "target": "T1, GRK4 (Homo sapiens, UniProt P32298)", "T1 construct": "purchased Thermo Fisher Scientific (Life Technologies) SelectScreen", "T1 sequence (P32298 whole entry)": "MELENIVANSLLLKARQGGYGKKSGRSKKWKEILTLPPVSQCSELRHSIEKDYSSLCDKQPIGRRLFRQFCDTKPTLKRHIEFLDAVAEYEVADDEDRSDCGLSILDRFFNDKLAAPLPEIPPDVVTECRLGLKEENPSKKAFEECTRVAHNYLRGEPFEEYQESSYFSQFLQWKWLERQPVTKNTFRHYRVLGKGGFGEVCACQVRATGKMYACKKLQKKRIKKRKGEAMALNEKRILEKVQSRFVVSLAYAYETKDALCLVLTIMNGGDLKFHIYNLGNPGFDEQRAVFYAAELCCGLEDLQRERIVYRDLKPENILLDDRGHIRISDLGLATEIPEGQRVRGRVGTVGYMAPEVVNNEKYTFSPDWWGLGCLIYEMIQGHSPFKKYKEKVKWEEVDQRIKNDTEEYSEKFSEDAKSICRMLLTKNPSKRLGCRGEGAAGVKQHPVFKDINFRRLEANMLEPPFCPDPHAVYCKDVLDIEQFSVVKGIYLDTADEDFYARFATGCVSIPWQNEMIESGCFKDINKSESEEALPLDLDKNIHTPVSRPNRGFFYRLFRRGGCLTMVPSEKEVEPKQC", "assay": "SelectScreen Z'LYTE", "assay_type": "biochemical", "how_it_was_run": "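NU5455 was profiled across the SelectScreen Broad panel of kinase activity and binding assays. Z'LYTE reactions such as CSF1R ran at apparent Km ATP, while the Adapta CAMK1 assay used ATP listed as 10. Values are given as percent.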"}
{"smiles": "CN(C(=O)CN1CCOCC1)c1ccc2sc3c(-c4cccc5c(=O)cc(N6CC7CCC(C6)O7)oc45)cccc3c2c1", "note": "[NU5455]", "values": [{"measurement": "inhibition at 1 µM", "value": 3.5, "unit": "%"}]}
